Test results as given in paper PMC9887600, “Screening for Cyclotides in Sri Lankan Medicinal Plants: Discovery, Characterization, and Bioactivity Screening of Cyclotides from Geophila repens” (Journal of Natural Products, 2022).
Where two headings read alike, the source gives them in different places. Where a SMILES comes first, the peptide text is derived from it. Bridges are numbered along the chain shown (N, C = ends).

Assays:
[1] = tested on: Pseudomonas aeruginosa (ATCC 27853); experiment: Microdilution MIC assay, P. aeruginosa; format: cell-based; details: lowest concentration inhibiting 100% growth; Tris buffer, triplicate
Excerpt: (§1) Cyclotides isolated from G. repens were subjected to a microdilution assay on 96-well plates to determine minimum inhibitory concentration (MIC values), according to a method devised to minimize the activity-inhibiting presence of rich growth media.[43] For these experiments, bacterial strains of E. coli, P. aeruginosa, and S. aureus and the fungal strain of C. albicans were used. The MIC was taken as the lowest concentration of a cyclotide where the visible growth of microbes was inhibited, i.e., 100% of cell death.
(§2) The dried cyclotides were subjected to MIC determination[43] against Staphylococcus aureus (ATCC 29213), Escherichia coli (ATCC 25922), Pseudomonas aeruginosa (ATCC 27853), and Candida albicans (ATCC 90028). The cyclotides (stock concentration of 65 μM) were dissolved in Tris buffer for the assay, and a concentration gradient of the cyclotides was screened against a microbial suspension mixed in a 1:1 ratio in each well (50 μL:50 μL). Microorganisms were grown in 3% tryptic soy broth (TSB) at 37 °C overnight, after centrifuging at 2000 rpm for 6–7 min, and bacterial pellets were washed twice and dissolved with Tris buffer. The absorbance was measured at 600 nm, and the solution was diluted to a concentration of 1 × 10^6 bacteria/mL. Dilution series were prepared using a serial dilution method with cyclotides and Tris buffer. In each plate, 50 μL of microbial suspension (approximately 50 000 cells/well) was added and incubated for 5 h. After incubation, 5 μL of 20% TSB was added to each well. Each plate was incubated based on the growth cycle of the microbe for 6, 9, 10, and 12 h at 37 °C. The minimum concentration that inhibited 100% growth was recorded as the MIC value. Triplicate assays were carried out for each sample.

[2] = tested on: Candida albicans (ATCC 90028); experiment: Microdilution MIC assay, C. albicans; format: cell-based; details: lowest concentration inhibiting 100% growth; Tris buffer, triplicate
Excerpt: as §1, §2

[3] = Liposome leakage (carboxyfluorescein release) membrane permeabilization assay; format: biochemical, E. coli; details: carboxyfluorescein release at 45 min, Tris buffer pH 7.4, current study
Protocol: Each marker represents the mean leakage in Tris buffer, pH 7.4, with standard deviations from three experiments done at individual peptide concentrations, i.e., with no cumulative additions.
Liposomes were manufactured and their permeabilization was assayed as described previously.[48] Briefly, by dissolving an E. coli polar lipid extract in chloroform and evaporating the solvent under agitation, with a nitrogen gas flow, and then storing in vacuum, dry films were formed on the walls of a glass flask. Lipid films were resuspended in an aqueous solution of 100 mM 5(6)-carboxyfluorescein in 10 mM Tris (set to pH 7.4 at 37 °C). Suspensions were subjected to repeated extrusion through a 100 nm polycarbonate membrane in order to reduce multilamellar structures and polydispersity. Untrapped carboxyfluorescein was removed by gel filtration. Membrane permeability was measured by monitoring carboxyfluorescein efflux from the liposomes to the external low-concentration environment, resulting in loss of self-quenching and an increased fluorescence signal. […] The EC50 values are calculated from a sigmoidal dose–response curve with a variable slope to the leakage percentage as a function of the peptide concentration (log 10).

[4] = tested on: Staphylococcus aureus (ATCC 29213); experiment: Microdilution MIC assay, S. aureus; format: cell-based; details: lowest concentration inhibiting 100% growth; Tris buffer, triplicate
Excerpt: as §1, §2

[5] = tested on: Human Lymphoma Cell Line U-937 GTB; details: read-out: cytotoxicity, IC50, lymphoma U937; FMCA, 72 h incubation
Protocol: The cytotoxicity of the cyclotides was determined using the fluorometric microculture cytotoxicity assay, employing the U-937 a human lymphoma cell line. This assay is based on hydrolysis of the probe, fluorescein diacetate (FDA), by esterase in live cells containing an intact plasma membrane. The cyclotides were tested at a series of concentrations obtained by 2-fold dilutions.
Cytotoxicity activities of the pure cyclotides were evaluated using a fluorometric microculture cytotoxicity assay (FMCA),[57] which is based on the monitoring of fluorescence arising from fluorescein that is produced as a result of fluorescein diacetate (FDA) hydrolysis by cells with intact cell membranes. Human lymphoma cells (U937) suspended in cell-growth medium were dispensed into the microtiter plate containing pure cyclotides. Each well was seeded with 200 μL of cell suspension, containing approximately 20 000 cells, to give a total volume of 200 μL/well. […] After 40 min of incubation at 37 °C the fluorescence was measured at 485 nm excitation and 538 nm emission. The fluorescence in each well is proportional to the number of living cells, and cytotoxicity activity of a fraction is inversely proportional to fluorescence intensity. […] The IC50 values were calculated from a sigmoidal dose–response curve with a variable slope to the percentage viability as a function of the peptide concentration (log 10).

[6] = tested on: Escherichia coli (ATCC 25922); experiment: Microdilution MIC assay, E. coli; format: cell-based; details: for antimicrobial activity, MIC, Escherichia coli: lowest concentration inhibiting 100% growth, Tris buffer, triplicate
Excerpt: as §1, §2

[7] = tested on: Candida albicans (ATCC 90028); set-up: method as in PMID 28669767; details: previously reported; cited from earlier work
[8] = tested on: Escherichia coli (ATCC 25922); set-up: method as in PMID 28669767; details: previously reported; cited from earlier work
[9] = tested on: standard microbial strains (E. coli, P. aeruginosa, S. aureus, C. albicans); experiment: Microdilution MIC assay, whole panel of microorganisms; format: cell-based; details: highest tested concentration 32.5 μM
Excerpt: as §1
as §2, with “In each plate, 50 μL of microbial suspension (approximately 50 000 cells/well) was added and incubated for 5 h. After incubation, 5 μL of 20% TSB was added to each well. Each plate was incubated based on the growth cycle of the microbe for 6, 9, 10, and 12 h at 37 °C. The minimum concentration that inhibited 100% growth was recorded as the MIC value. Triplicate assays were carried out for each sample.” left out

[10] = tested on: Human Lymphoma Cell Line U-937 GTB; set-up: method as in PMID 21491023; details: previously reported; read-out: cytotoxicity, IC50, lymphoma U937; cited from earlier work
[11] = previously; cited from earlier work
[12] = tested on: Pseudomonas aeruginosa (ATCC 27853); set-up: method as in PMID 28669767; details: previously reported; cited from earlier work
[13] = tested on: Staphylococcus aureus (ATCC 29213); set-up: method as in PMID 28669767; details: previously reported; cited from earlier work
[14] = set-up: method as in PMID 28669767; details: previous liposome leakage studies; cited from earlier work

Compound | antimicrobial activity, MIC, Pseudomonas aeruginosa [1] [µM] | antimicrobial activity, MIC, Candida albicans [2] [µM] | EC50 [3] [nM] | antimicrobial activity, MIC, Staphylococcus aureus [4] [µM] | IC50 [5] [nM] | fold more active than cyO2 against E. coli ([6]; gere 1 versus cyO2 MIC) [fold] | antimicrobial activity, MIC, Escherichia coli [6] [µM] | antimicrobial activity, MIC, Candida albicans [7] [µM] | antimicrobial activity, MIC, Escherichia coli [8] [µM] | minimum inhibitory concentration against panel of microorganisms [9] [µM] | IC50 [10] [nM] | concentration at which active in radial diffusion assays [11] [mM] | antimicrobial activity, MIC, Pseudomonas aeruginosa [12] [µM] | antimicrobial activity, MIC, Staphylococcus aureus [13] [µM] | EC50 [14] [nM]
CC[C@H](C)[C@@H]1NC(=O)[C@H](C)NC(=O)[C@H](CO)NC(=O)[C@H](CO)NC(=O)[C@H]([C@@H](C)CC)NC(=O)[C@@H]2CSSC[C@@H]3NC(=O)[C@H](C(C)C)NC(=O)[C@H](CCCCN)NC(=O)[C@H](CC(N)=O)NC(=O)[C@H](CCCCN)NC(=O)[C@@H]4CSSC[C@H](NC(=O)[C@H](CO)NC(=O)[C@H](CCC(=O)O)NC(=O)CNC(=O)[C@H](CSSC[C@H](NC(=O)CNC1=O)C(=O)N[C@@H](CO)C(=O)N4)NC(=O)[C@@H]1CCCN1C(=O)[C@H]([C@@H](C)CC)NC(=O)CNC(=O)[C@H](CC(N)=O)NC(=O)[C@H](CCCCN)NC(=O)[C@H](Cc1ccc(O)cc1)NC3=O)C(=O)N[C@@H](C(C)C)C(=O)N[C@@H](Cc1c[nH]c3ccccc13)C(=O)N[C@@H]([C@@H](C)CC)C(=O)N1CCC[C@H]1C(=O)N2 [gere 1] (cyclo(AIGCSCKNKVCYKNGIPCGESCVWIPCISS); disulfide 4-18, 6-22, 11-27) | 7.9 | >10 | 70 | >10 | 2000 | 5 | 4.0 |  |  |  |  |  |  |  | 
CC[C@H](C)[C@@H]1NC(=O)CNC(=O)[C@H](CC(N)=O)NC(=O)[C@H]([C@@H](C)CC)NC(=O)[C@H](Cc2ccc(O)cc2)NC(=O)[C@@H]2CSSC[C@@H]3NC(=O)CNC(=O)[C@H](Cc4ccccc4)NC(=O)[C@H](Cc4ccc(O)cc4)NC(=O)[C@H](C)NC(=O)[C@@H]4CSSC[C@H](NC(=O)[C@H](CO)NC(=O)[C@H](CSSC[C@H](NC(=O)[C@H](C)NC1=O)C(=O)NCC(=O)N[C@@H](CCC(=O)O)C(=O)N[C@@H](CO)C(=O)N4)NC(=O)CNC(=O)[C@@H]1CCCN1C(=O)[C@H]([C@@H](C)CC)NC(=O)[C@H](Cc1c[nH]c4ccccc14)NC3=O)C(=O)N[C@@H](CCCCN)C(=O)N[C@@H](CC(=O)O)C(=O)N[C@@H](CCCCN)C(=O)N[C@@H](C(C)C)C(=O)N2 [gere 2] | >10 | >10 |  | >10 |  |  | >10 |  |  |  |  |  |  |  | 
CC[C@H](C)[C@@H]1NC(=O)[C@@H]2CSSC[C@@H]3NC(=O)[C@H](C(C)C)NC(=O)[C@H](CCCCN)NC(=O)[C@H](CC(=O)O)NC(=O)[C@H](CCCCN)NC(=O)[C@@H]4CSSC[C@H](NC(=O)[C@H](CO)NC(=O)[C@H](CCC(=O)O)NC(=O)CNC(=O)[C@H](CSSC[C@H](NC(=O)CNC(=O)[C@H]([C@@H](C)CC)NC(=O)[C@H](C(C)C)NC(=O)[C@H]([C@@H](C)O)NC(=O)[C@H]([C@@H](C)O)NC1=O)C(=O)N[C@@H](CO)C(=O)N4)NC(=O)[C@@H]1CCCN1C(=O)[C@H](C(C)C)NC(=O)CNC(=O)[C@H](CC(N)=O)NC(=O)[C@H]([C@@H](C)O)NC(=O)[C@H](Cc1ccc(O)cc1)NC3=O)C(=O)N[C@@H](C(C)C)C(=O)N[C@@H](Cc1ccccc1)C(=O)N[C@@H]([C@@H](C)CC)C(=O)N1CCC[C@H]1C(=O)N2 [gere 3] | >10 | >10 |  | >10 |  |  | >10 |  |  |  |  |  |  |  | 
CC[C@H](C)[C@@H]1NC(=O)[C@H](Cc2ccccc2)NC(=O)[C@H](C(C)C)NC(=O)[C@@H]2CSSC[C@@H]3NC(=O)[C@H](CO)NC(=O)[C@@H]4CSSC[C@H](NC(=O)[C@@H]5CCCN5C(=O)[C@H](C(C)C)NC(=O)CNC(=O)[C@H](CC(N)=O)NC(=O)[C@H](CC(N)=O)NC(=O)[C@H](Cc5ccc(O)cc5)NC(=O)[C@H](CSSC[C@H](NC(=O)[C@@H]5CCCN5C1=O)C(=O)N[C@@H](Cc1ccccc1)C(=O)N[C@@H]([C@@H](C)O)C(=O)N[C@@H]([C@@H](C)O)C(=O)N[C@@H](C(C)C)C(=O)N[C@@H](C(C)C)C(=O)NCC(=O)N4)NC(=O)[C@H](C(C)C)NC(=O)[C@H](CCCCN)NC(=O)[C@H](CC(=O)O)NC(=O)[C@H](CCCCN)NC3=O)C(=O)NCC(=O)N[C@@H](CCC(=O)O)C(=O)N[C@@H](CO)C(=O)N2 [gere 4] | >10 | >10 |  | >10 |  |  | >10 |  |  |  |  |  |  |  | 
CC[C@H](C)[C@@H]1NC(=O)[C@@H]2CCCN2C(=O)[C@H](Cc2c[nH]c3ccccc23)NC(=O)[C@H](CO)NC(=O)[C@@H]2CSSC[C@@H]3NC(=O)[C@H]([C@@H](C)O)NC(=O)[C@H](CCC(=O)O)NC(=O)CNC(=O)[C@@H]4CSSC[C@H](NC(=O)CNC(=O)[C@H](CCC(N)=O)NC(=O)[C@H]([C@@H](C)O)NC(=O)[C@H](Cc5ccc(O)cc5)NC(=O)[C@H](CSSC[C@H](NC1=O)C(=O)N[C@@H](CCCCN)C(=O)N[C@@H](CCCNC(=N)N)C(=O)N[C@@H](CC(N)=O)C(=O)NCC(=O)N[C@@H](CC(C)C)C(=O)N1CCC[C@H]1C(=O)N[C@@H](C(C)C)C(=O)N4)NC(=O)[C@H]([C@@H](C)O)NC(=O)CNC(=O)[C@H](CC(C)C)NC(=O)[C@H]([C@@H](C)O)NC3=O)C(=O)N[C@@H]([C@@H](C)O)C(=O)N2 [kB7, kalata B7] (cyclo(CGETCTLGTCYTQGCTCSWPICKRNGLPV); disulfide 1-15, 5-17, 10-22) |  |  | 94 |  | 10200 |  |  | >10 | >10 | ≥ 32.5 | > 10000 | 2 | 1.25 | >10 | 
cycloviolacin O2 [cyO2, reference compound] |  |  |  |  |  |  |  | >10 | >10 |  | 260 to 1800 |  | 10 | >10 | 76
